One series concerns the target T1, Akt2 (Homo sapiens, UniProt P31751).
T1 construct: purchased ProQinase
In words: HTRF KinEASE assay, IC50 against Akt2. The settings on record: wild-type Akt2; mean ± SD, n=3. It is filed as biochemical.

Series [1] deals with T2, wild-type Akt1 (Homo sapiens, UniProt P31749).
T2 construct: made in house
In words: LC-MS identification of covalent binders after co-incubation with Akt1. The settings on record: co-incubation with Akt1, Figure S1. It is filed as binding. The source says: 2. Evaluation results … 4
4. Molecular Modelling … 57
indicated covalent binding.

For the next series, the system named is AN3CA cells. In words: CellTiter-Glo Luminescent Cell Viability Assay, AN3CA. The settings on record: Homo sapiens, AN3-CA; endometrium cancer cell line; mean ± SD, n=3; read-out: EC50 AN3CA. It is filed as cell-based.
The test system of a further series is KU-19-19 cells. In words: CellTiter-Glo Luminescent Cell Viability Assay, KU-19-19. It is filed as cell-based. The settings on record: Homo sapiens, bladder cancer cell line, Akt1 E17K/E49K, mean ± SD, n=3. As for the experimental part:
The potential in vitro antiproliferative activity of the synthesised target compounds was investigated against a number of cancer cell lines by the CellTiter‐Glo® Luminescent Cell Viability Assay (from Promega Corporation, USA, catalogue number: G7570). The half‐maximal effective concentrations (EC50) of these compounds were determined against the AN3‐CA, BT‐474, KU‐19‐19, MCF‐7, T‐47D and ZR‐75‐1 cell lines originating from various tissues, i. e., breast, endometrium and bladder (Table S1). […]
The CellTiter-Glo® Luminescent Cell Viability Assay from Promega was used for the cellular assays, performed as explained by Weisner et al.7,8 Information on the cancer cell lines are given in Table S1, the control compounds used in Figure S3 and the results in Table S2.
Table S1. The cell lines used for the cellular assays, including what cancer type they are predominantly found in, and where the cell lines were acquired form.
Cell line Cancer type Acquired from AN3CA Endometrium ATCC (provided by Prof. Jan G. Hengstler at Leibniz-Institut für Arbeitsforschung Dortmund)
KU-19-19 Bladder Deutsche Sammlung von Mikroorganismen und Zellkulturen […]
BT-474 CLS Cell Lines Service (provided by Prof. Jan G. Hengstler at […] Leibniz-Institut für Arbeitsforschung Dortmund)
In general terms: In ATP-based viability assays light output follows the ATP content of the culture.

Another series has as its system BT-474 cells. In words: CellTiter-Glo Luminescent Cell Viability Assay, BT-474. It is filed as cell-based. The settings on record: Homo sapiens, BT-474; breast cancer cell line; mean ± SD, n=3; read-out: EC50 BT‐474.
For the next series, the system named is MCF-7 cells. In words: CellTiter-Glo Luminescent Cell Viability Assay, MCF-7. It is filed as cell-based. The settings on record: Homo sapiens, MCF7; breast cancer cell line; mean ± SD, n=3; read-out: EC50 MCF‐7.
The next series concerns T47D cells. In words: CellTiter-Glo Luminescent Cell Viability Assay, T47D. It is filed as cell-based. The settings on record: Homo sapiens, breast cancer cell line, mean ± SD, n=3.
In another series the test system is ZR-75-1 cells. In words: CellTiter-Glo Luminescent Cell Viability Assay, ZR-75-1. It is filed as cell-based. The settings on record: Homo sapiens, ZR-75-1; breast cancer cell line; mean ± SD, n=3; read-out: EC50 ZR‐75‐1.
Series [2] concerns the target T3, Akt1 (Homo sapiens, UniProt P31749). In words: Kinetic analysis with HTRF KinEASE (time-dependent IC50), kinetic parameters of inactivation. It counts as biochemical. Set-up: purchased ProQinase. The settings on record: mean ± SD, n=3; for Ki: inhibition constant of inactivation. (TR-FRET usually uses a lanthanide donor and a delayed reading to cut background.)
Description: The kinetic parameters of inactivation, namely the inhibition constant (K I) and the rate constant of enzyme inactivation (k inact), are therefore preferentially used to describe irreversible inhibitors.[28] K I is defined as the concentration of inhibitor required for half of the maximum potential rate of covalent bond formation, while k inact is defined as the maximum potential rate of covalent bond formation.[29] The ratio of k inact over K I, k inact/K I, accounts for both the potency of the inhibitor (K I) and the maximum potential rate of covalent bond formation (k inact) and thus represents the second‐order rate constant describing the efficiency of covalent complex formation.[29] Using a protocol published by Krippendorff et al., K I and k inact can be directly estimated from time‐dependent IC50 determinations by kinetic analysis with HTRF® KinEASE™.[28]
Using a protocol published by Krippendorff et al., KI, kinact and kinact/KI could be directly
estimated from time-dependent IC50 determinations by kinetic analysis with HTRF® KinEASE™,
In series [3] the target is T3, Akt1. In words: HTRF KinEASE assay, IC50 against Akt1. The settings on record: mean ± SD, n=3.
Description: (§1) The homogeneous time‐resolved fluorescence (HTRF®) KinEASE™ assay by Cisbio was used to determine the half‐maximal inhibitory concentration (IC50) values of the synthesised compounds against Akt1, Akt2 and Akt3 (Table 1).[26]
(§2) The HTRF® KinEASE™ assay (Cisbio) was used to determine the IC 50 values of the synthesised
(§3) al. (Akt2 and Akt3).1,5 The three wild-type Akt isoforms used were acquired from ProQinase.
A further series addresses Akt3 (Homo sapiens, UniProt Q9Y243). In words: HTRF KinEASE assay, IC50 against Akt3.
The target in series [4] is T2, wild-type Akt1. Set-up: method as in earlier work. The settings on record: ref 6a; cited from earlier work.
Where [5] appears, read: IC50, Akt1, repeated in Table 2 for comparison.

Akt3, sequence (Q9Y243 whole entry): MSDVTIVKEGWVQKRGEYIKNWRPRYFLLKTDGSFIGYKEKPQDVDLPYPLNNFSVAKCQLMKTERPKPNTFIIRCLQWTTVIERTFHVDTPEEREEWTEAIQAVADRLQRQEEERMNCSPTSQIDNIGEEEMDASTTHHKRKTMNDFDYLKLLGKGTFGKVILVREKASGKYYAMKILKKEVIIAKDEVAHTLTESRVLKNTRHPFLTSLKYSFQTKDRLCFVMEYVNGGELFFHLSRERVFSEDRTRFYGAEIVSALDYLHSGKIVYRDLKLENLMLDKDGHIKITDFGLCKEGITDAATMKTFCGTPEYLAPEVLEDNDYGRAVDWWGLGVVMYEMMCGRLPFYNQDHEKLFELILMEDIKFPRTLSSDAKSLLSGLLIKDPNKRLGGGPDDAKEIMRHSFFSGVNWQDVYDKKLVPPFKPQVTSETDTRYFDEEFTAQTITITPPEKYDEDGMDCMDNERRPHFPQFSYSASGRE
T3 sequence (P31749 whole entry): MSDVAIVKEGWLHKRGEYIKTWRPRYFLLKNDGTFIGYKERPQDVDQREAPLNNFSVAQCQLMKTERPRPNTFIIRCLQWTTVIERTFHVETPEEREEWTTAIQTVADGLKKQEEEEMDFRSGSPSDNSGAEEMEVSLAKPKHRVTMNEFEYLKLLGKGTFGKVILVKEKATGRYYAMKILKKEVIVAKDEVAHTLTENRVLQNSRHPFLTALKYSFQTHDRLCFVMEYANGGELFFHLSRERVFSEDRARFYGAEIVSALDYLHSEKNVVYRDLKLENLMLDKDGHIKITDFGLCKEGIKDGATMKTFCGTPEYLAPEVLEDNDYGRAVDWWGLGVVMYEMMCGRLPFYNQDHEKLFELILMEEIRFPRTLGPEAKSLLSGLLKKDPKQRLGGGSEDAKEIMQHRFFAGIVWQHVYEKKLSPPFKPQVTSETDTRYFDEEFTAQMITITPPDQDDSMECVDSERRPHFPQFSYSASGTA
T2 sequence (P31749 whole entry): as above
T1 sequence (P31751 whole entry): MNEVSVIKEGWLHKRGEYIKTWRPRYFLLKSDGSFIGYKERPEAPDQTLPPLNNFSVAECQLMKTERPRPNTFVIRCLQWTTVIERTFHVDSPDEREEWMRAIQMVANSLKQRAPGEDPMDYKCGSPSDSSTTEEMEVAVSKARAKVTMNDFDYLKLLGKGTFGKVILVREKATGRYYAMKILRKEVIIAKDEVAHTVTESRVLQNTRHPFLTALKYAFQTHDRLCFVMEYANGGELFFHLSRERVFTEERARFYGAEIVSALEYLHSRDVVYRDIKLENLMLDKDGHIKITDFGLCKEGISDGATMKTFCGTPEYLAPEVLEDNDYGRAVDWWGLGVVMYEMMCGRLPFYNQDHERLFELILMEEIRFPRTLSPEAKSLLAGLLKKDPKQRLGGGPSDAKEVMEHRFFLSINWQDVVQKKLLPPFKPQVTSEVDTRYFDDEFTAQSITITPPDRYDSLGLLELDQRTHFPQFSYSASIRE
Description for Akt2: as §1, §2, §3
Description for Akt3: as §1, §2, §3

The compound `C=CC(=O)Nc1ccc2[nH]c(=O)n(C3CCN(Cc4ccc(-c5nc6ccccn6c5-c5ccccc5)cc4)CC3)c2c1` [Compound 11, N ‐(2‐Oxo‐3‐{1‐[4‐(3‐phenylimidazo[1,2‐a]pyridin‐2‐yl)benzyl]piperidin‐4‐yl}‐2,3‐dihydro‐1H‐benzo[d]imidazol‐5‐yl)acrylamide] gave a melting point of 221 to 223 °C. Also, the IC50 on Akt2 was 2560 ± 578 nM. The “covalent binding to Akt1 (mass increase by LC-MS)” value on wild-type Akt1 [1] was “covalent binders”. For the same compound, the EC50 in the series on AN3CA cells was found to be 1030 ± 210 nM. The midpoint of the response in the series with KU-19-19 cells, the EC50, lay at 12800 ± 1620 nM. Besides, in the series with BT-474 cells, the EC50 stood at 971 ± 301 nM. Further, the EC50 in the series on MCF-7 cells was determined as 1100 ± 689 nM. In the series on T47D cells, this compound showed an EC50 of 364 ± 87 nM. Further, in the series with ZR-75-1 cells, the EC50 was 81 ± 11 nM. Besides, at Akt1 [2], the Ki came out at 27.2 ± 2.6 nM, the k inact was found to be 0.069 ± 0.004 min⁻¹ and the “k inact/K I” value amounted to 43000 ± 6000 M⁻¹ s⁻¹. At Akt1 [3] (setting [5]), this compound came in with an IC50 of 34.1 ± 20.4 nM. The same compound registered an IC50 against Akt1 [3] (IC50 Akt1, wild-type Akt1) of 34 ± 20 nM. The compound further returned an IC50 on Akt3 greater than 20000 nM.

The compound `C=CC(=O)Nc1cc2c(cc1Cl)[nH]c(=O)n2C1CCN(Cc2ccc(-c3nc4ccccn4c3-c3ccccc3)cc2)CC1` [Compound 12, N ‐(6‐Chloro‐2‐oxo‐3‐{1‐[4‐(3‐phenylimidazo[1,2‐a]pyridin‐2‐yl)benzyl]piperidin‐4‐yl}‐2,3‐dihydro‐1H‐benzo[d]imidazol‐5‐yl)acrylamide] came in with a melting point of 80 to 82 °C. In addition, the IC50 at Akt2 was 5590 ± 1520 nM. Moreover, the “covalent binding to Akt1 (mass increase by LC-MS)” value at wild-type Akt1 [1] was “covalent binders”. In the series on AN3CA cells, the EC50 amounted to 3570 ± 1220 nM. This compound gave an EC50 in the series with KU-19-19 cells of 23500 ± 6700 nM. The EC50 in the series with BT-474 cells came to 3760 ± 1380 nM. Also, the EC50 in the series on MCF-7 cells worked out at 4230 ± 2400 nM. The compound also registered an EC50 in the series with T47D cells of 1500 ± 903 nM. The EC50 in the series on ZR-75-1 cells amounted to 227 ± 57 nM. For the same compound, at Akt1 [2], the Ki turned out to be 24.7 ± 1.8 nM, the k inact amounted to 0.081 ± 0.008 min⁻¹ and the “k inact/K I” value was 55000 ± 9000 M⁻¹ s⁻¹. For the same compound, on Akt1 [3] (setting [5]), half-maximal inhibition (IC50) required 28.6 ± 5.3 nM. In addition, 29 ± 5 nM corresponded to half-maximal inhibition at Akt1 [3] (IC50 Akt1, wild-type Akt1) (IC50). The compound further had an IC50 against Akt3 greater than 20000 nM.

For `C=CC(=O)Nc1cccc(-c2cn(C3CCN(Cc4ccc(-c5nc6ccccn6c5-c5ccccc5)cc4)CC3)nn2)c1` [Compound 3, N ‐[3‐(1‐{1‐[4‐(3‐Phenylimidazo[1,2‐a]pyridin‐2‐yl)benzyl]piperidin‐4‐yl}‐1H‐1,2,3‐triazol‐4‐yl)phenyl]acrylamide], the IC50 at Akt2 is greater than 20000 nM; on Akt1 [3] (Akt1, repeated in Table 2 for comparison), 372 ± 48.5 nM; at Akt3, greater than 20000 nM. Also, on wild-type Akt1 [1], the “covalent binding to Akt1 (mass increase by LC-MS)” value is “quantitative protein labelling”. In addition, the EC50 amounted to 4750 ± 1540 nM in the series with AN3CA cells; 12400 ± 2880 nM in the series on KU-19-19 cells; 8270 ± 862 nM in the series on BT-474 cells; 4300 ± 1130 nM with MCF-7 cells; 4070 ± 1610 nM in the series with T47D cells; 2170 ± 517 nM in the series with ZR-75-1 cells. Besides, the “covalent binding to Akt1, previously identified” value on wild-type Akt1 [4] was “covalent binder”. On Akt1 [2], this compound had a Ki of 497 ± 107 nM. The k inact at Akt1 [2] was 0.071 ± 0.006 min⁻¹. The “k inact/K I” value on Akt1 [2] stood at 2000 ± 1000 M⁻¹ s⁻¹.

The IC50 is the concentration that gives 50% inhibition. Higher therefore signals lower potency. As a reminder, the EC50 is the concentration needed to bring the measured effect to its halfway point. As usually defined, the melting point is the temperature of the solid-liquid transition.

The record behind these values is PMC9311865, “Covalent Allosteric Inhibitors of Akt Generated Using a Click Fragment Approach” (Chemmedchem, 2022).
